Experimental data published in patent US20240254439A1, “METHOD FOR PREPARING TASTE BUD ORGANOIDS USING ANTERIOR TONGUE EPITHELIAL CELLS” (Korea University Research and Business Foundation, priority 2023, published 2024).

What was measured:
[1] = system: taste bud organoids from anterior tongue epithelial tissue; assay: Culture efficiency (growth efficiency, size) of taste bud organoids from anterior tongue epithelial tissue; format: cell-based, mouse; conditions: added alone or in combination to basic culture medium supplemented with R-spondin1 and noggin; SAG added under all these conditions (FIG. 2)
Experimental: (§1) The tongue was collected from a mouse, and dispase II enzyme (2 mg/mL) (Roche, cat #4942078001) diluted in physiological saline was injected into the space between the epithelium and subepithelial connective tissue to expand the tongue tissue ((2) in FIG. 1), and the expanded tongue tissue was cultured in dispase II enzyme dilution at 37° C. for 30 minutes. The epithelial layer is peeled off from the subepithelial connective tissue to separate the epithelial lamina therefrom, and it is cut into as small an area as possible using tools such as sterilized surgical scissors or a knife in trypsin/EDTA (Gibco, cat #25200072) solution. The finely cut tissues were cultured at 37° C. for 30 minutes. Thereafter, the finely cut tissues are subjected to pressure by continuous pipetting to extract cells from the tissue and form a single cell suspension. The cell pellets obtained by centrifuging this suspension are embedded in an extracellular matrix such as Matrigel at an appropriate ratio.
(§2) All culture media are based on basic culture medium (DMEM/F12+1×GlutaMax+1×HEPES+1×N2 supplement+1×B27 supplement+1×penicillin/streptomycin).
(§3) The single cells embedded in the Matrigel were cultured in differentiation medium 1 (FIRNY+SAG) for 4 days, then cultured for 10 days, while replacing the culture medium with differentiation medium 2 (FIRN+SAG+CHIR_SU5402) and changing the medium culture every 2-3 days.

[2] = system: taste bud organoids from anterior tongue epithelial tissue; assay: Differentiation into taste cells in anterior tongue taste bud organoids, immunofluorescence staining of taste cell markers; format: cell-based, mouse
Experimental: as §1, §2, §3
In culturing taste bud organoids from anterior tongue epithelial tissue, it was confirmed by immunofluorescence staining that when SAG-containing basic culture medium was treated with CHIR99021 (CHIR), which stimulates the Wnt and Notch signaling pathways, the differentiation efficiency into type 1, type 2 and type 3 taste cells all increased (FIG. 4).
In order to confirm the optimization of the expression efficiency of markers for cells that make up taste buds in organoids and the differentiation efficiency into cells that make up taste buds by components other than CHIR, CHIR was added after the first 3 days of culture, and organoids were cultured in culture medium in which FGF was removed or SU5402 was additionally added. As a result, it was confirmed by immunofluorescence staining that when FGF was removed or SU5402 was additionally input after 3 days of culture, the differentiation efficiency into type 2 and type 3 taste cells increased (FIG. 6).

Molecule: CNC1CCC(N(Cc2cccc(-c3ccncc3)c2)C(=O)c2sc3ccccc3c2Cl)CC1 (stereo not drawn) [SAG]
- growth efficiency or size of the organoid itself [1]: no change
- differentiation into type 1, type 2 and type 3 taste cells ([2]; SAG added to basic culture medium with R-spondin1 and noggin, with or without EGF, FGF2, IGF1 (FIG. 3)): differentiation into type 1, type 2 and type 3 taste cells was confirmed

Molecule: Cc1cnc(-c2cnc(NCCNc3ccc(C#N)cn3)nc2-c2ccc(Cl)cc2Cl)[nH]1 [CHIR99021]
- differentiation efficiency into type 1, type 2 and type 3 taste cells ([2]; SAG-containing basic culture medium treated with CHIR99021, immunofluorescence staining (FIG. 4)): all increased
- differentiation efficiency into type 1, type 2 and type 3 taste cells by CHIR-treated time ([2]; treated with CHIR on days 3, 5 or 7, immunofluorescence staining (FIG. 5)): the earlier treatment with CHIR, the higher the differentiation efficiency

Molecule: Cc1c[nH]c(/C=C2\C(=O)Nc3ccccc32)c1CCC(=O)O [SU5402]
- differentiation efficiency into type 2 and type 3 taste cells ([2]; CHIR added after the first 3 days of culture, SU5402 additionally input after 3 days, immunofluorescence staining (FIG. 6)): increased

Molecule: FGF2: fibroblast growth factor 2, protein that regulates cell growth, proliferation and differentiation
- growth efficiency or size of the organoid itself [1]: no change
- differentiation efficiency into taste cells ([2]; growth factor added to SAG-containing medium with R-spondin1 and noggin, immunofluorescence staining (FIG. 3)): differentiation efficiency increased

Molecule: EGF: growth factor added to the basic culture medium (NSDSECPLSHDGYCLHDGVCMYIEALDKYACNCVVGYIGERCQYRDLKWWELR; UniProt P01133 971-1023, looked up)
- growth efficiency or size of the organoid itself [1]: no change

Molecule: IGF1: insulin-like growth factor 1, protein that regulates cell growth, proliferation and differentiation
- growth efficiency or size of the organoid itself [1]: no change
